Measured values published in ChEMBL document CHEMBL1123805, “Synthesis of certain nucleoside methylenediphosphonate sugars as potential inhibitors of glycosyltransferases” (J Med Chem, 1987).
Active and inactive are the calls of the source. The calls are words filed in the database; no cut-off is given here.

Assays:
[1] = species: Mus musculus; assay: Glycosyltransferase inhibitory activity up to a concentration of 50 ug/mL; Without significant activity
[2] = system: L1210; assay: In vitro antitumor activity was evaluated against L1210 leukemia cell lines; None = no activity; type: functional, cell-based; settings: Mus musculus
[3] = system: CCRF-CEM; assay: In vitro antitumor activity was evaluated against human T-lymphoblastic leukemia cell lines; None = no activity; type: functional, cell-based
[4] = system: Vero; assay: In vitro antiviral activity was evaluated against vero cell lines infected with rhino virus; non toxic at concentrations as high as 50000 uM; type: functional, cell-based; settings: Chlorocebus sabaeus
[5] = system: Vero; assay: In vitro antiviral activity was evaluated against vero cell lines infected with influenza virus; non toxic at concentrations as high as 50000 uM; type: functional, cell-based; settings: Chlorocebus sabaeus
[6] = system: Vero; assay: In vitro antiviral activity was evaluated against vero cell lines infected with visna virus; non toxic at concentrations as high as 50000 uM; type: functional, cell-based; settings: Chlorocebus sabaeus
[7] = system: Vero; assay: In vitro antiviral activity was evaluated against vero cell lines infected with herpes simplex virus type-2; non toxic at concentrations as high as 50000 uM; type: functional, cell-based; settings: Chlorocebus sabaeus
[8] = system: WIL2; assay: In vitro antitumor activity was evaluated against human B-lymphoblastic leukemia cell lines; None = no activity; type: functional, cell-based
[9] = system: Vero; assay: In vitro antiviral activity was evaluated against vero cell lines infected with adenovirus type 2; non toxic at concentrations as high as 50000 uM; type: functional, cell-based; settings: Chlorocebus sabaeus
[10] = system: Vero; assay: In vitro antiviral activity was evaluated against vero cell lines infected with Parainfluenza virus type 3; non toxic at concentrations as high as 50000 uM; type: functional, cell-based; settings: Chlorocebus sabaeus

SMILES: Nc1ncnc2c1ncn2C1O[C@H](COP(=O)(O)CP(=O)(O)OC2O[C@H](CO)[C@@H](O)[C@H](O)[C@H]2O)[C@@H](O)[C@H]1O (stereo not given in full)
- Activity [1]: Without significant activity
- Cytotoxiciy [2]: None
- Cytotoxiciy [3]: None
- Activity [4]: inactive
- Activity [5]: inactive
- Activity [6]: inactive
- Activity [7]: inactive
- Cytotoxiciy [8]: None
- Activity [9]: inactive
- Activity [10]: inactive
